The values below come from patent US20110152210A1, “POLYPHENOL COMPOUNDS FOR INHIBITING PROTEASOME AND USES THEREOF” (THE ROYAL INSTITUTION FOR THE ADVANCEMENT OF …, priority 2009, published 2011).

The structures appear in SMILES notation. “Also recorded” adds a separate entry of the source.

Assay [1] addresses T1, Purified rabbit 20S proteasome (Oryctolagus cuniculus, UniProt G1T4Q9).
T1 sequence (G1T4Q9 60-263): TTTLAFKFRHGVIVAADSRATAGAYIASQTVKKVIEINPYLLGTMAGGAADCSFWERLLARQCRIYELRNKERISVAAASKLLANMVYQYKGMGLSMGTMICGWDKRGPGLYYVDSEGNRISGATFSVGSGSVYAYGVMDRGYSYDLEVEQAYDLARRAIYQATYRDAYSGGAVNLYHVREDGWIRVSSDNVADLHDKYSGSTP
Nature of the assay: Inhibition of chymotrypsin-like activity of purified 20S proteasome. Format: biochemical. As to conditions: for inhibition of proteasomal chymotryptic activity (in words): 2 h; for IC50: Suc-LLVY-AMC, 2 h at 37° C., read-out: IC50, inhibition of proteasomal chymotrypsin-like activity. The source says: EGCG was used as a comparative standard. Materials. Purified rabbit 20S proteasome and fluorogenic substrate Suc-LLVY-AMC for the proteasomal chymotrypsinlike (CT-like) activity were obtained from Calbiochem Inc. (San Diego, Calif.). Fetal bovine serum (FBS) was from Tissue Culture Biologicals (Tulare, Calif.). Penicillin and streptomycin were purchased from Invitrogen Co. (Carlsbad, Calif.). RPMI 1640 medium was purchased from Invitrogen Co. (Carlsbad, Calif.). […] Inhibition of purified 20S proteasome activity by EGCG and its analogs.

Assay [2] has as its system human multiple myeloma ARP cells. Put plainly: MTT assay in multiple myeloma ARP cells, alone or combined with Velcade. Format: cell-based. As to conditions: 48 hrs; for inhibition of cell proliferation as single agent (in words): ARP cells; for effect on cell proliferation in combination with bortezomib (in words): 20 μM with varying doses of Velcade. The method, then: The cells were treated with Velcade alone or with 20 μM of compounds 5, 7 and 23 or in combination with varying doses of Velcade for 48 hrs, followed by a MTT assay.
Deep purple color indicates fully viable cells; light purple color indicates a reduced number of viable cells; and yellowish color indicates an absence of viable cells.
MTT assay. Cells were grown in a 96-well plate. Triplicate wells of cells were treated with indicated concentrations of EGCG or EGCG analogs for 24 h. After aspiration of medium, MTT (1 mg/ml) was then added to the cell cultures, followed by incubation for 3 h at 37° C. After cells were crystallized, MTT was removed and DMSO was added to dissolve the metabolized MTT product. The absorbance was then measured on a Wallac Victor3 1420 Multi-label counter at 540 nm.
On the technique in general: Formazan colour is commonly taken as a measure of viable cells.

The next assay concerns cancer cell lines. Conditions: a number of cancer cell lines; cited from earlier work.

Consider `CC(=O)Oc1cc(OC(C)=O)cc(C(=O)O[C@H]2Cc3ccccc3C[C@H]2OC(C)=O)c1` [Compound 22], for which the “inhibition of proteasomal chymotryptic activity (in words)” value in assay [1] is “none of the resulting derivatives 4, 6, 8, 17 and 22 exhibited proteasomal inhibition”.
Turning to `CC(C)C[C@H](NC(=O)[C@H](Cc1ccccc1)NC(=O)c1cnccn1)B(O)O` [bortezomib, reference compound], the “inhibition of cell proliferation as single agent (in words)” value in assay [2] is reported as “reduced cell proliferation in a dose-dependent manner”.
Consider `CC(=O)Oc1cc(OC(C)=O)c2c(c1)O[C@H](c1cc(OC(C)=O)c(OC(C)=O)c(OC(C)=O)c1)[C@H](OC(=O)c1cc(OC(C)=O)c(OC(C)=O)c(OC(C)=O)c1)C2` [Compound 4, (−)Epigallocatechin gallate octa acetate, reference compound], for which the “inhibition of proteasomal chymotryptic activity (in words)” value in assay [1] is “none of the resulting derivatives 4, 6, 8, 17 and 22 exhibited proteasomal inhibition”. Besides, the “growth inhibitory activity compared to EGCG (1) (in words)” value in the assay with cancer cell lines is recorded as “enhanced growth inhibitory activity”.
In the case of `O=C(O[C@H]1Cc2ccccc2C[C@H]1OC(=O)c1cc(O)c(O)c(O)c1)c1cc(O)c(O)c(O)c1` [Compound 5], the IC50 (commonly the point on the concentration scale where inhibition reaches its midpoint) in assay [1] stood at 19 µM. In assay [2], the “effect on cell proliferation in combination with bortezomib (in words)” value was “interfered with; also recorded: partially block the inhibitory effect of bortezomib”.
Consider `O=C(O[C@H]1Cc2ccccc2C[C@H]1OC(=O)c1cc(O)cc(O)c1)c1cc(O)cc(O)c1` [Compound 7], for which the IC50 in assay [1] was found to be 29 µM. Besides, in assay [2], the “effect on cell proliferation in combination with bortezomib (in words)” value is recorded as “synergistic inhibitory effect” and the “inhibition of cell proliferation as single agent (in words)” value is on record as “most potent cell proliferation inhibitor”.
For `O=C(O[C@@H]1Cc2c(O)cc(O)cc2O[C@@H]1c1cc(O)c(O)c(O)c1)c1cc(O)c(O)c(O)c1` [EGCG, (−)Epigallocatechin gallate, reference compound], the “inhibition of proteasomal chymotryptic activity (in words)” value in assay [1] is listed as “potently inhibited”.
As to `CC(=O)Oc1cc(C(=O)O[C@H]2Cc3ccccc3C[C@H]2OC(C)=O)cc(OC(C)=O)c1OC(C)=O` [Compound 17], the “inhibition of proteasomal chymotryptic activity (in words)” value in assay [1] is “none of the resulting derivatives 4, 6, 8, 17 and 22 exhibited proteasomal inhibition”.
